This note sets out measurements from patent US20230399341A1, “7-PHENYL SUBSTITUTED 2-AMINOQUINAZOLINE INHIBITORS OF HPK1” (MERCK SHARP & DOHME LLC, priority 2020, published 2023).

This assay has as its target T1, Human HPK1, catalytic domain (Homo sapiens, UniProt Q92918).
T1 sequence (Q92918 1-346): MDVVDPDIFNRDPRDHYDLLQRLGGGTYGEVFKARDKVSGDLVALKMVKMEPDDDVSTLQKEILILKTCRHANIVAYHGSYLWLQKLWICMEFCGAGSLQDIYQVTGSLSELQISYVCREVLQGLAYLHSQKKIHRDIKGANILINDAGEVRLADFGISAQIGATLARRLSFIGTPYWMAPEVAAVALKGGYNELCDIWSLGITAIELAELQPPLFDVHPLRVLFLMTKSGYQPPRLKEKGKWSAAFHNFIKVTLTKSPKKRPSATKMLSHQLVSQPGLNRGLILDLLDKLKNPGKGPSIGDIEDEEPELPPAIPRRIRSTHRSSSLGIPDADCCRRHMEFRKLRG
The assay is described as follows: HPK1-SLP76 TR-FRET Assay. The assay is classed as biochemical. To be noted: 75 pM HPK1, ATP 10 uM, SLP76 10 nM, 30 min pre-incubation, 60 min reaction. A general note: In TR-FRET formats the signal depends on donor and acceptor labels being close together.

On to `COc1cc2c(cc1Nc1ncc3c(N)c(F)c(-c4ccccc4-c4ccnn4C)cc3n1)CN(C)CC2` [Compound 2-65, 6-fluoro-N~2~-(6-methoxy-2-methyl-1,2,3,4-tetrahydroisoquinolin-7-yl)-7-[2-(1-methyl-1H-pyrazol-5-yl)phenyl]quinazoline-2,5-diamine], for which the IC50 (commonly the concentration needed to halve the response being measured) worked out at 16.6 nM.
In turn, `Cc1c(-c2cc3nc(Nc4cc5c(cc4F)CCN(C(C)C)C5)ncc3c(N)c2F)cnc2c1NCCO2` [Compound 2-171, 6-fluoro-N~2~-[6-fluoro-2-(propan-2-yl)-1,2,3,4-tetrahydroisoquinolin-7-yl]-7-(8-methyl-2,3-dihydro-1H-pyrido[2,3-b][1,4]oxazin-7-yl)quinazoline-2,5-diamine] registered an IC50 of 0.0507 nM.
Then `COc1ncccc1Nc1ncc2c(N)c(F)c(-c3cnc4c(c3C)NCCO4)cc2n1` [Compound 2-27, 6-fluoro-N~2~-(2-methoxypyridin-3-yl)-7-(8-methyl-2,3-dihydro-1H-pyrido[2,3-b][1,4]oxazin-7-yl)quinazoline-2,5-diamine], with 0.117 nM; and `COc1cc2c(cc1Nc1ncc3ccc(-c4ccccc4C4CC4)cc3n1)CNCC2` [Compound 1-92, 7-(2-cyclopropylphenyl)-N-(6-methoxy-1,2,3,4-tetrahydroisoquinolin-7-yl)quinazolin-2-amine], with 92.4 nM; and `COc1cc(F)ccc1Nc1ncc2c(N)c(F)c(-c3cnc4c(c3C)NCCO4)cc2n1` [Compound 2-69, 6-fluoro-N~2~-(4-fluoro-2-methoxyphenyl)-7-(8-methyl-2,3-dihydro-1H-pyrido[2,3-b][1,4]oxazin-7-yl)quinazoline-2,5-diamine], with 0.51 nM.
Regarding `Cc1c(-c2cc3nc(Nc4ccc(CS(C)(=O)=O)nc4)ncc3c(N)c2F)cnc2c1NCCO2` [Compound 2-84, 6-fluoro-7-(8-methyl-2,3-dihydro-1H-pyrido[2,3-b][1,4]oxazin-7-yl)-N2-(6-((methylsulfonyl)methyl)pyridin-3-yl)quinazoline-2,5-diamine], half-maximal inhibition (IC50) required 0.0222 nM.
On to `CNC(=O)Cc1ccc(Nc2ncc3c(N)c(F)c(-c4cnc5c(c4C)NCCO5)cc3n2)cc1` [Compound 2-13], for which the IC50 came out at 0.0496 nM.
Then `Cc1c(-c2c(F)c(N)c3cnc(Nc4ccc5c(c4)CN(C(C)C)CC5)nc3c2Cl)cnc2c1NCCO2` [Compound 2-96, (+ or −)-8-chloro-6-fluoro-7-(8-methyl-2,3-dihydro-1H-pyrido[2,3-b[1,4]oxazin-7-yl)-N~2~- [2-(propan-2-yl)-1,2,3,4-tetrahydroisoquinolin-7-yl]quinazoline-2,5-diamine], with 0.0825 nM; and `COc1cc2c(cc1Nc1ncc3ccc(-c4ccc5c(c4)CCC(=O)N5)cc3n1)CNCC2` [Compound 1-88, 6-{2-[(6-methoxy-1,2,3,4-tetrahydroisoquinolin-7-yl)amino]quinazolin-7-yl}-3,4-dihydroquinolin-2(1H)-one], with 96.9 nM; and `Cc1c(-c2cc3nc(Nc4cnc5c(c4)CN(C(C)C)CC5)ncc3c(N)c2F)cnc2c1NCCO2` [Compound 2-175, 6-fluoro-7-(8-methyl-2,3-dihydro-1H-pyrido[2,3-b][1,4]oxazin-7-yl)-N~2~- [6-(propan-2-yl)-5,6,7,8-tetrahydro-1,6-naphthyridin-3-yl]quinazoline-2,5-diamine], with 0.0298 nM.
Then `Cc1c(-c2cc3nc(Nc4ccccc4F)ncc3c(N)c2F)cnc2c1NCCO2` [Compound 2-22, 6-fluoro-N~2~-(2-fluorophenyl)-7-(8-methyl-2,3-dihydro-1H-pyrido[2,3-b][1,4]oxazin-7-yl)quinazoline-2,5-diamine], with 0.687 nM.
With `Cc1c(-c2cc3nc(Nc4ccc(C(C)S(C)(=O)=O)cc4)ncc3c(N)c2F)cnc2c1NCCO2` (single isomer, unassigned) [Compound 2-62, (R or S)-6-fluoro-7-(8-methyl-2,3-dihydro-1H-pyrido[2,3-b][1,4]oxazin-7-yl)-N˜2˜-{4-[1-(methylsulfonyl)ethyl]phenyl}quinazoline-2,5-diamine], half-maximal inhibition (IC50) required 0.0612 nM.
Take `CNC(=O)c1ccc(-c2ccc3cnc(Nc4cc5c(cc4OC)CCN(C)C5)nc3c2)cn1` [Compound 1-21, 5-{2-[(6-methoxy-2-methyl-1,2,3,4-tetrahydroisoquinolin-7-yl)amino]quinazolin-7-yl}-N-methylpyridine-2-carboxamide]: the IC50 was determined as 294 nM.
Then `COc1cc2c(cc1Nc1ncc3ccc(Oc4ccc(C(=O)N5CCN(C)CC5)cc4)cc3n1)CN(C)CC2` [Compound 4-6, [4-({2-[(6-methoxy-2-methyl-1,2,3,4-tetrahydro-isoquinolin-7-yl)amino]-quinazolin-7-yl}oxy)phen-yl](4-methylpiperazin-1-yl)methanone], with 583 nM; and `Cc1c(-c2cc3nc(Nc4ccc(CS(=O)(=O)CC(F)(F)F)cc4)ncc3c(N)c2F)cnc2c1NCCO2` [Compound 2-149, 6-fluoro-7-(8-methyl-2,3-dihydro-1H-pyrido[2,3-b][1,4]oxazin-7-yl)-N~2~- {4-[(2,2,2-trifluoroethanesulfonyl)methyl]phenyl}quinazoline-2,5-diamine], with 0.194 nM.
`COc1cc2c(cc1Nc1ncc3ccc(-c4cc(C#N)ccc4F)cc3n1)CNCC2` [Compound 1-90, 4-fluoro-3-{2-[(6-methoxy-1,2,3,4-tetrahydroisoquinolin-7-yl)amino]quinazolin-7-yl}benzonitrile] came in with an IC50 of 393 nM.
`COc1cc2c(cc1Nc1ncc3ccc(-c4cccc(-c5cn[nH]c5)c4)cc3n1)CNCC2` [Compound 1-56, N-(6-methoxy-1,2,3,4-tetrahydroisoquinolin-7-yl)-7-[3-(1H-pyrazol-4-yl)phenyl]quinazolin-2-amine]: the IC50 was determined as 204 nM.
Then `Cc1c(-c2cc3nc(Nc4ccccc4Cl)ncc3c(N)c2F)cnc2c1NCCO2` [Compound 2-31, N~2~-(2-chlorophenyl)-6-fluoro-7-(8-methyl-2,3-dihydro-1H-pyrido[2,3-b][1,4]oxazin-7-yl)quinazoline-2,5-diamine], with 4.62 nM.
`CCNC(=O)c1ccc(-c2ccc3cnc(Nc4cc5c(cc4OC)CCN(C)C5)nc3c2)cn1` [Compound 1-23, N-ethyl-5-{2-[(6-methoxy-2-methyl-1,2,3,4-tetrahydroisoquinolin-7-yl)amino]quinazolin-7-yl}pyridine-2-carboxamide]: the IC50 was found to be 693 nM.
Then `CNC(=O)C(F)(F)c1ccc(Nc2ncc3cc(F)c(-c4cnc5c(c4C)NCCO5)cc3n2)cc1` [Compound 1-122, 2,2-difluoro-2-(4-{[6-fluoro-7-(8-methyl-2,3-dihydro-1H-pyrido[2,3-b][1,4]oxazin-7-yl)quinazolin-2-yl]amino}phenyl)-N-methylacetamide], with 0.532 nM; and `COc1cc2c(cc1Nc1ncc3ccc(-c4ccc(NC(C)=O)nc4)cc3n1)CNCC2` [Compound 1-30, N-(5-{2-[(6-methoxy-1,2,3,4-tetahydroisoquinolin-7-yl)amino]quinazolin-7-yl}pyridin-2-yl)acetamide], with 45.5 nM.
Then `COc1cc2c(cc1Nc1ncc3ccc(NCC(=O)N4CCOCC4)cc3n1)CN(C)CC2` [Compound 3-64, 2-({2-[(6-methoxy-2-methyl-1,2,3,4-tetrahydroisoquinolin-7-yl)amino]quinazolin-7-yl}-amino)-1-(morpholin-4-yl)ethan-1-one], with 115 nM.
Then `CCN(CC)S(=O)(=O)c1cccc(-c2ccc3cnc(Nc4cc5c(cc4OC)CCNC5)nc3c2)c1` [Compound 1-80, N,N-diethyl-3-{2-[(6-methoxy-1,2,3,4-tetrahydroisoquinolin-7-yl)amino]quinazolin-7-yl}benzene-1-sulfonamide], with 23.9 nM.
In the case of `COc1cc2c(cc1Nc1ncc3c(N)c(F)c(-c4cnc5c(c4C)NCCO5)c(Cl)c3n1)CN(C(C)C)CC2` (single isomer, unassigned) [Compound 2-105, (+ or −)-8-chloro-6-fluoro-N2-(2-isopropyl-6-methoxy-1,2,3,4-tetrahydroisoquinolin-7-yl)-7-(8-methyl-2,3-dihydro-1H-pyrido[2,3-b][1,4]oxazin-7-yl)quinazoline-2,5-diamine], 0.0714 nM corresponded to half-maximal inhibition (IC50).
Then `COc1cc2c(cc1Nc1ncc3ccc(-c4cccc(CNC(C)=O)c4)cc3n1)CN(C)CC2` [Compound 1-98, N-[(3-{2-[(6-methoxy-2-methyl-1,2,3,4-tetrahydroisoquinolin-7-yl)amino]quinazolin-7-yl}phenyl)methyl]acetamide], with 203 nM; and `COc1cc2c(cc1Nc1ncc3ccc(NC4(C)COC4)cc3n1)CN(C)CC2` [Compound 3-55, N~2~-(6-methoxy-2-methyl-1,2,3,4-tetrahydroisoquinolin-7-yl)-N~7~-(3-methyloxetan-3-yl)quinazoline-2,7-diamine], with 240 nM.
Then `COc1cc2c(cc1Nc1ncc3c(N)cc(-c4cncc(N)c4C)cc3n1)CN(C)CC2` [Compound 2-39, 7-(5-amino-4-methylpyridin-3-yl)-N~2~- (6-methoxy-2-methyl-1,2,3,4-tetrahydroisoquinolin-7-yl)quinazoline-2,5-diamine], with 0.942 nM.
`COc1cc2c(cc1Nc1ncc3cc(F)c(-c4cnc5c(c4C)NCCO5)cc3n1)CN(C)CC2` [Compound 1-95, 6-fluoro-N-(6-methoxy-2-methyl-1,2,3,4-tetrahydroisoquinolin-7-yl)-7-(8-methyl-2,3-dihydro-1H-pyrido[2,3-b][1,4]oxazin-7-yl)quinazolin-2-amine] registered an IC50 of 2.32 nM.
As for `Cc1c(-c2cc3nc(Nc4ccc(CC(=O)N5CCOCC5)cc4)ncc3cc2F)cnc2c1NCCO2` [Compound 1-133, 2-(4-{[6-fluoro-7-(8-methyl-2,3-dihydro-1H-pyrido[2,3-b][1,4]oxazin-7-yl)quinazolin-2-yl]amino}phenyl)-1-(morpholin-4-yl)ethan-1-one], the IC50 came out at 0.0835 nM.
